IC50 data for 13 compounds are collected here from patent publication US20230210853A1 (Halia Therapeutics, Inc., priority 2020, published 2023).

Where two headings read alike, the source gives them in different places. Some results are limits rather than exact numbers.

One may read the IC50 as the concentration needed to halve the response being measured.

Assay [1] has as its target T1, full-length recombinant human NEK7 (Homo sapiens, UniProt Q8TDX7).
T1 construct: full-length recombinant human NEK7; GST (N); purchased SignalChem N09-10G; host or cells: Sf9 insect cells (baculovirus)
Kind of assay: NEK7 enzymatic assay ([33P]-ATP, casein substrate). Type of assay: biochemical. The conditions noted are these: recombinant human NEK7, casein substrate. The method, boiled down: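 Serially diluted compounds (10 μM down to 0.5 nM, 3-fold) were preincubated 20 min at room temperature with N-terminal GST-NEK7 from Sf9 cells and casein in pH 7.5 Hepes/MgCl2/EGTA/Brij35/DTT buffer containing 1% DMSO. [33P]-ATP then started a 2 h room-temperature reaction, stopped by spotting onto P81 paper. IC50 came from percent activity remaining versus vehicle.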

The subject of another assay is IL-1β release. Put plainly: IL-1β release assay (PMA-differentiated THP-1 cells, LPS + nigericin, cleaved IL-1β by JESS). Type of assay: cell-based. The conditions noted are these: Homo sapiens, THP-1 cells, LPS + nigericin, read-out: IL-1β release IC50. How it is done: (§1) Approximately 1.5 million THP-1 cells were plated in each well of a 6-well TC plate and incubated with 40 nM PMA in RPMI (10% FBS, 1% Penstrep) for 24 hours. The media was then removed and cells were rested in RPMI (10% FBS, 1% Penstrep) for 24 hours after which time the media was removed and cells were pre-treated for 2 hours with various concentrations of compounds of interest (typically serial 3-fold dilution in RPMI +5% FBS, concentrations ranging from 1 μM to 0.5 nM) in RPMI (5% FBS). The media was again removed and cells were incubated with 250 ng/mL LPS and compounds of interest (concentrations as above) in RMPI (5% FBS) for 2 hours. The media was removed for a last time and cells were incubated with 20 μM nigericin and compounds of interest (concentrations as above) in Opti-MEM for 30 minutes. Cell media was then collected and the amount of cleaved IL-1β was determined using a JESS instrument (Protein Simple) and standard protocols. Cleaved 1-PD antibody was obtained from Cell Signaling (catalogue #83186S) and was used at 1:20 dilution in antibody diluent 2. Protein Simple 1× anti-Rabbit HRP secondary antibody was used along with Protein Simple luminol and peroxide for chemiluminescent detection. Primary antibody incubation time was increased from 30 minutes to 60 minutes.
as §1, with “RPMI+5%” for “RPMI +5%”, “Il-1β” for “1-PD”

T1 sequence (Q8TDX7 whole entry): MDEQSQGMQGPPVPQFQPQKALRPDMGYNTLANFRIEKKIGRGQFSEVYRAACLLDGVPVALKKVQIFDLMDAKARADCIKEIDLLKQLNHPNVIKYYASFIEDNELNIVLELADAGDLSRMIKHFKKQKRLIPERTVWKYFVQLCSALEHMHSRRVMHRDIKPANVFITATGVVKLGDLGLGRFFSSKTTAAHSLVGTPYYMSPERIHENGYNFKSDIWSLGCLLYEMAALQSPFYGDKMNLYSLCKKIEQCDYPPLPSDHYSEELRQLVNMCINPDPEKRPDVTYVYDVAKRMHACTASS

Consider `CN1CCN(Cc2ccc(NC(=O)Nc3ccc(-c4nn(CC(C)(C)O)c5ncnc(N)c45)cc3F)cc2C(F)(F)F)CC1` [Id-28, 1-(4-(4-amino-1-(2-hydroxy-2-methylpropyl)-1H-pyrazolo[3,4-d]pyrimidin-3-yl)-2-fluorophenyl)-3-(4-((4-methylpiperazin-1-yl)methyl)-3-(trifluoromethyl)phenyl)urea], for which the IC50 in assay [1] (Table 2d) was less than 150 nM; with IL-1β release (48 h, Table 2d) it was less than 150 nM.

In the case of `CN1CCN(Cc2ccc(NC(=O)Nc3ccc(-c4nn(C5CC5)c5ccnc(N)c45)cc3F)cc2C(F)(F)F)CC1` [Id-30, 1-(4-(4-amino-1-cyclopropyl-1H-pyrazolo[4,3-c]pyridin-3-yl)-2-fluorophenyl)-3-(4-((4-methylpiperazin-1-yl)methyl)-3-(trifluoromethyl)phenyl)urea], the IC50 in assay [1] (Table 2d) is less than 150 nM; in the assay with IL-1β release (48 h, Table 2d) it was less than 150 nM.

Take `Nc1ncnc2c1c(-c1ccc(NC(=O)Nc3ccc(CN4CCOCC4)c(C(F)(F)F)c3)c(F)c1)cn2C1CC1` [Id-31, 1-(4-(4-amino-7-cyclopropyl-7H-pyrrolo[2,3-d]pyrimidin-5-yl)-2-fluorophenyl)-3-(4-(morpholinomethyl)-3-(trifluoromethyl)phenyl)urea]: the IC50 in assay [1] (Table 2d) lay in the range of 501 to 1500 nM; with IL-1β release (48 h, Table 2d) it was 301 to 500 nM.

As to `CN1CCN(Cc2ccc(NC(=O)Nc3ccc(-c4cn(C5CC5)c5ncnc(N)c45)cc3F)cc2C(F)(F)F)CC1` [Id-33, 1-(4-(4-amino-7-cyclopropyl-7H-pyrrolo[2,3-d]pyrimidin-5-yl)-2-fluorophenyl)-3-(4-((4-methylpiperazin-1-yl)methyl)-3-(trifluoromethyl)phenyl)urea], the IC50 is less than 150 nM in assay [1] (Table 2d) and less than 150 nM with IL-1β release (48 h, Table 2d).

For `CN1CCN(C(=O)c2ccc(NC(=O)Nc3ccc(-c4nn(C5CC5)c5ncnc(N)c45)cc3F)cc2C(F)(F)F)CC1` [Id-48], the IC50 in assay [1] (Table 2d) is 151 to 300 nM; in the assay on IL-1β release (48 h, Table 2d), greater than 1000 nM.

In the case of `CCN1CCN(Cc2ccc(NC(=O)Nc3ccc(-c4nn(C5CC5)c5ncnc(N)c45)cc3F)cc2C(F)(F)F)CC1` [Id-49], the half-inhibitory concentration (IC50) in assay [1] (Table 2d) is less than 150 nM; in the assay on IL-1β release (48 h, Table 2d), less than 150 nM.

For `CN1CCN(Cc2ccc(NC(=O)Nc3ccc(Oc4ccnc5[nH]cc(Cl)c45)cc3F)cc2C(F)(F)F)CC1` [Ie-1, 1-(4-((3-chloro-1H-pyrrolo[2,3-b]pyridin-4-yl)oxy)-2-fluorophenyl)-3-(4-((4-methylpiperazin-1-yl)methyl)-3-(trifluoromethyl)phenyl)urea], the 50% inhibitory concentration (IC50) in assay [1] (Table 2e) was 151 to 300 nM; in the assay with IL-1β release (Table 2e) it was less than 150 nM.

Regarding `CCN1CCN(Cc2ccc(NC(=O)Nc3ccc(Oc4ccnc5[nH]cc(Cl)c45)cc3F)cc2C(F)(F)F)CC1` [Ie-9, 1-(4-((3-chloro-1H-pyrrolo[2,3-b]pyridin-4-yl)oxy)-2-fluorophenyl)-3-(4-((4-ethylpiperazin-1-yl)methyl)-3-(trifluoromethyl)phenyl)urea], the concentration for half-maximal inhibition (IC50) in assay [1] (Table 2e) was 501 to 1500 nM; in the assay with IL-1β release (Table 2e), less than 150 nM.

Consider `CN1CCC(Oc2ccc(NC(=O)Nc3ccc(Oc4ccnc5[nH]cc(Cl)c45)cc3F)cc2C(F)(F)F)CC1` [Ie-16, 1-(4-((3-chloro-1H-pyrrolo[2,3-b]pyridin-4-yl)oxy)-2-fluorophenyl)-3-(4-((1-methylpiperidin-4-yl)oxy)-3-(trifluoromethyl)phenyl)urea], for which the 50% inhibitory concentration (IC50) in assay [1] (Table 2e) was 151 to 300 nM; in the assay with IL-1β release (Table 2e), less than 150 nM.

For the compound `CN1CCC(=Cc2ccc(NC(=O)Nc3ccc(Oc4ccnc5[nH]cc(Cl)c45)cc3F)cc2C(F)(F)F)CC1` [Ie-20, 1-(4-((3-chloro-1-pyrrolo[2,3-b]pyridin-4-yl)oxy)-2-fluorophenyl)-3-(4-((1-methylpiperidin-4-ylidene)methyl)-3-(trifluoromethyl)phenyl)urea], the IC50 in assay [1] (Table 2e) was 301 to 500 nM; with IL-1β release (Table 2e) it was less than 150 nM.

Consider `CN1CCN(Cc2ccc(NC(=O)Nc3ccc(Oc4ccnc5[nH]cc(C6CC6)c45)cc3F)cc2C(F)(F)F)CC1` [Ie-26, 1-(4-((3-cyclopropyl-1H-pyrrolo[2,3-b]pyridin-4-yl)oxy)-2-fluorophenyl)-3-(4-((4-methylpiperazin-1-yl)methyl)-3-(trifluoromethyl)phenyl)urea], for which the IC50 was 501 to 1500 nM in assay [1] (Table 2e) and less than 150 nM in the assay on IL-1β release (Table 2e).

Turning to `Cc1[nH]c2nccc(Oc3ccc(NC(=O)Nc4ccc(CN5CCN(C)CC5)c(C(F)(F)F)c4)c(F)c3)c2c1Cl` [Ie-27, 1-(4-((3-chloro-2-methyl-1H-pyrrolo[2,3-b]pyridin-4-yl)oxy)-2-fluorophenyl)-3-(4-((4-methylpiperazin-1-yl)methyl)-3-(trifluoromethyl)phenyl)urea], the half-inhibitory concentration (IC50) was 301 to 500 nM in assay [1] (Table 2e) and less than 150 nM in the assay with IL-1β release (Table 2e).

`Cc1c[nH]c2nccc(Oc3ccc(NC(=O)Nc4ccc(CN5CCN(C)CC5)c(C(F)(F)F)c4)c(F)c3)c12` [Ie-28, 1-(2-fluoro-4-((3-methyl-1H-pyrrolo[2,3-b]pyridin-4-yl)oxy)phenyl)-3-(4-((4-methylpiperazin-1-yl)methyl)-3-(trifluoromethyl)phenyl)urea]: the IC50 (in assay [1] (Table 2e); in the assay on IL-1β release (Table 2e)) was 151 to 300 nM each time.
